Where two headings read alike, the source gives them in different places.
Assays:
gabapentin binding site = assay: Binding assay: displacement of gabapentin from its binding site; details: for IC50: displacement of gabapentin from its binding site; for Percent inhibition: inhibition/displacement of gabapentin, concentration 10^−5 μM [sic]
Procedure: Gabapentin was used in a binding assay in order to check the binding and affinities of the selected compounds. The affinity of the compounds according to the invention was measured via the displacement of gabapentin from its binding site.

[1] = test system: male Sprague-Dawley rats with L5/L6 spinal nerve ligatures; assay: In vivo experiments according to Chung (spinal nerve ligation, tactile withdrawal threshold); parameters: species or system rat; details: for ED50: Rattus norvegicus
Procedure: In male Sprague-Dawley rats spinal nerve ligatures were applied according to Kim and Chung (1992) to the left L5/L6 spinal nerves. At the same time spinal catheters were implanted according to Pogatzki et al. ^6 (2000). 4 to 6 days after the operation the tactile threshold baseline (withdrawal thresholds) was measured on the ipsilateral and contra lateral rear paw by an electronic vonFrey anaesthesiometer (IITC Life Science, USA). […] After the test and baseline measurement, gabapentin and substances according to the invention were administered. The tactile withdrawal thresholds were measured 30 minutes after administration. The results are expressed as ED50 and % maximal possible effect (% MPE; % of the maximal possible effect) on the ipsilateral side, in which the baseline is taken as 0% and the withdrawal threshold of a control group is taken as 100% MPE.

[2] = test system: male albino mice (NMRI), formalin-induced nociception; assay: Formalin test on mice (second phase); assay type: in vivo, mouse; details: Mus musculus, iv, formalin test, i.v., read-out: ED50 value
Procedure: The investigations to determine the antinociceptive action of the compounds according to the invention were carried out by the formalin test on male albino mice (NMRI, 25-35 g, Iffa Credo, Belgium).
In the formalin test the first (early) phase (0-15 minutes after the formalin injection) and the second (late) phase (15-60 minutes after the formalin injection) differ (D. Dubuisson et al., Pain, Vol. 4, pp. 161-174 (1977)). The early phase, being a direct reaction to the formalin injection, constitutes a model for acute pain, whereas the late phase is regarded as a model for persistent (chronic) pain (T. J. Coderre et al., Pain, Vol. 52, pp. 259-285 (1993)).
The compounds according to the invention were investigated in the second phase of the formalin test in order to obtain information on the effects of substances in chronic/inflammatory pain. By means of a single subcutaneous formalin injection (20 μl, 1% aqueous solution) into the dorsal side of the right-hand rear paw, a nociceptive reaction was induced in unconstrained experimental animals, manifested in a noticeable licking and biting of the affected paw.
The nociceptive behavior for the test period in the second (late) phase of the formalin test was continuously monitored by observing the animals. The pain reaction was quantified by totaling the time in seconds during which the animals continued to lick and bite the affected paw during the investigation period. After injecting substances that have an antinociceptive effect in the formalin test, the aforedescribed behavior pattern of the animals is reduced or possibly even cancelled.
Corresponding to the substance tests, in which the animals had been injected with the test substance before formalin, the control animals were injected with a vehicle, i.e. solvent (e.g. 0.9% NaCl solution) before the formalin injection. […]
Based on the quantification of the pain reaction, the effect of the substance in the formalin test was determined as the change in the control in percentage terms. […]

SMILES | IC50 (gabapentin binding site) [nM] | Percent inhibition (gabapentin binding site) [%] | also measured
CCCc1ccc(S(=O)(=O)/N=C(\N)NCc2ccccn2)cc1 [Example 42, N-{amino[(pyridin-2-yl-methyl)-amino]-methylene}-4-propylbenzenesulfonamide] | 27 | – | –
N/C(=N\S(=O)(=O)c1cccs1)NCc1ccccn1 [Example 46, Thiophene-2-sulfonic acid amino-[(pyridin-2-yl-methyl)-amino]-methylene amide] | – | 36 | –
CC(=O)Nc1ccc(S(=O)(=O)/N=C(\N)NCc2ccccn2)cc1.Cl [Example 39, N-[4-({amino-[(pyridin-2-yl-methyl)-amino]-methylene}-sulfamoyl)-phenyl]-acetamide] | – | 27 | –
Cl.N/C(=N/S(=O)(=O)c1ccc(Cl)cc1)NCc1ccco1 [Example 63, N-{amino[(furan-2-yl-methyl)-amino]-methylene}-4-chlorobenzenesulfonamide] | – | 23.5 | –
CC(C)(C)c1ccc(S(=O)(=O)/N=C(/N)NCc2ncccn2)cc1.Cl [Example 51] | – | 5 | –
Cc1ccc(S(=O)(=O)/N=C(\N)NCc2ccccc2)cc1 [Example 2, N-[amino-(benzylaminomethylene)]-4-methylbenzene-sulfonamide] | – | 69.7 | –
Cl.N/C(=N\S(=O)(=O)c1ccccc1)NCc1ccccn1 [Example 36, N-{amino[(pyridin-2-yl-methyl)-amino]-methylene}-benzenesulfonamide] | – | 17 | –
CCCCc1ccc(S(=O)(=O)/N=C(\N)NCc2ccccn2)cc1 [Example 50, N-{amino[(pyridin-2-yl-methyl)-amino]-methylene}-4-butylbenzenesulfonamide] | 170 | – | –
Cc1ccc(S(=O)(=O)/N=C(/N)NCc2cccs2)cc1.Cl [Example 62, N-{amino[(thiophen-2-yl-methyl)-amino]-methylene}-4-methylbenzenesulfonamide] | – | 29 | –
CC(C)c1ccc(S(=O)(=O)/N=C(\N)NCc2ccccn2)cc1 [Example 34, N-{amino[(pyridin-2-yl-methyl)-amino]-methylene}-4-isopropylbenzenesulfonamide] | 33 | – | –
CC(C)c1ccc(S(=O)(=O)/N=C(/N)NCc2ccco2)cc1 [Example 54, N-{amino[(furan-2-yl-methyl)-amino]-methylene}-4-isopropylbenzenesulfonamide] | 3510 | – | –
CCCCc1ccc(S(=O)(=O)/N=C(/N)NCc2ccco2)cc1.Cl [Example 52, N-{amino[(furan-2-yl-methyl)-amino]-methylene}-4-butylbenzenesulfonamide] | – | 47 | –
N/C(=N\S(=O)(=O)c1cccc2ccccc12)NCc1ccccn1 [Example 44, Naphthalene-1-sulfonic acid amino-[(pyridin-2-yl-methyl)-amino]-methylene amide] | 5300 | – | –
N/C(=N\S(=O)(=O)c1ccc(I)cc1)NCc1ccccn1 [Example 35, N-{amino[(pyridin-2-yl-methyl)-amino]-methylene}-4-iodobenzenesulfonamide] | 50 | – | –
CCCCc1ccc(S(=O)(=O)/N=C(/N)NCc2cccs2)cc1.Cl [Example 57, N-{amino[(thiophen-2-yl-methyl)-amino]-methylene}-4-butylbenzenesulfonamide] | – | 41 | –
N/C(=N\S(=O)(=O)c1cccc2cccnc12)NCc1ccccn1 [Example 47, Quinoline-8-sulfonic acid amino-[(pyridin-2-yl-methyl)-amino]-methylene amide] | 2800 | – | –
N/C(=N\S(=O)(=O)c1ccc2ccccc2c1)NCc1ccccn1 [Example 37, Naphthalene-2-sulfonic acid amino-[(pyridin-2-yl-methyl)-amino]-methylene amide] | 122 | – | –

SMILES | IC50 (gabapentin binding site) [nM] | Percent inhibition (gabapentin binding site) [%] | also measured
N/C(=N\S(=O)(=O)c1ccc(Cl)c(Cl)c1)NCc1ccccn1 [Example 33, N-{amino[(pyridin-2-yl-methyl)-amino]-methylene}-3,4-dichlorobenzenesulfonamide] | 1100 | – | –
Cc1c(S(=O)(=O)/N=C(\N)NCc2ccccn2)sc2ccc(Cl)cc12 [Example 48, 5-chloro-3-methylbenzo[b]thiophene-2-sulfonic acid amino-[(pyridin-2-yl-methyl)-amino]-methylene amide] | 136 | – | –
CCCc1ccc(S(=O)(=O)/N=C(/N)NCc2ccco2)cc1 [Example 55, N-{amino[(furan-2-yl-methyl)-amino]-methylene}-4-propylbenzenesulfonamide] | 3200 | – | –
Cl.N/C(=N\S(=O)(=O)c1ccc(F)cc1)NCc1ccccn1 [Example 40, N-{amino[(pyridin-2-yl-methyl)-amino]-methylene}-4-fluorobenzenesulfonamide] | – | 21 | –
CC(C)c1ccc(S(=O)(=O)/N=C(/N)NCc2cccs2)cc1 [Example 59, N-{amino[(thiophen-2-yl-methyl)-amino]-methylene}-4-isopropylbenzenesulfonamide] | 970 | – | –
Cl.N/C(=N/S(=O)(=O)c1ccc(Cl)cc1)NCc1cccs1 [Example 61, N-{amino[(thiophen-2-yl-methyl)-amino]-methylene}-4-chlorobenzenesulfonamide] | – | 24 | –
Cc1cccc(S(=O)(=O)/N=C(\N)NCc2ccccn2)c1 [Example 45, N-{amino[(pyridin-2-yl-methyl)-amino]-methylene}-3-methylbenzenesulfonamide] | – | 35 | –
CC(C)(C)c1ccc(S(=O)(=O)/N=C(/N)NCc2cccs2)cc1 [Example 60, N-{amino[(thiophen-2-yl-methyl)-amino]-methylene}-4-tert.-butylbenzenesulfonamide] | 5690 | – | –
NCC1(CC(=O)O)CCCCC1 [gabapentin, reference compound] | – | – | ED50 ([1]; 0.5 h): 92.6 mg/kg; ED50 [2]: 79 mg/kg
Cc1cc(C)c(S(=O)(=O)/N=C(\N)NCc2ccccn2)c(C)c1 [Example 41, N-{amino[(pyridin-2-yl-methyl)-amino]-methylene}-2,4,6-trimethylbenzenesulfonamide] | 438 | – | –
CCCc1ccc(S(=O)(=O)/N=C(/N)NCc2cccs2)cc1 [Example 58, N-{amino[(thiophen-2-yl-methyl)-amino]-methylene}-4-propylbenzenesulfonamide] | 1820 | – | –
Cc1ccc(S(=O)(=O)/N=C(/N)NCc2ccco2)cc1.Cl [Example 53, N-{amino[(furan-2-yl-methyl)-amino]-methylene}-4-methylbenzenesulfonamide] | – | 26 | –
COc1ccc(S(=O)(=O)/N=C(\N)NCc2ccccn2)cc1 [Example 43, N-{amino[(pyridin-2-yl-methyl)-amino]-methylene}-4-methoxybenzenesulfonamide] | 634 | – | –
CC(C)(C)c1ccc(S(=O)(=O)/N=C(/N)NCc2ccccn2)cc1 [Example 49, N-{amino[(pyridin-2-yl-methyl)-amino]-methylene}-4-tert.-butylbenzenesulfonamide] | 90 | – | –
N/C(=N\S(=O)(=O)c1ccc(Br)cc1)NCc1ccccn1 [Example 32, N-{amino[(pyridin-2-yl-methyl)-amino]-methylene}-4-bromobenzenesulfonamide] | 218 | – | –
Cc1ccc(S(=O)(=O)/N=C(\N)NCc2ccccn2)cc1 [Example 1] | 421 | 82 | ED50 ([1]; 0.5 h, rats, Chung model, tactile withdrawal thresholds 30 minutes after administration, ipsilateral side, read-out: ED50): ~25 mg/kg; ED50 ([1]; read-out:, table title: Analgesia testing in rats according to Chung, further investigation): 10 to 20 mg/kg; superiority to gabapentin (factor) ([1]; rats, Chung model, ED50 compared with gabapentin): 4; effect compared with gabapentin ([1]; rats, Chung test, further investigation, result in words): superior in their effect to gabapentin; effect in the Chung test ([1]; rats, further investigation, result in words): show an effect
CC(C)(C)c1ccc(S(=O)(=O)/N=C(/N)NCc2ccco2)cc1.Cl [Example 56, N-{amino[(furan-2-yl-methyl)-amino]-methylene}-4-tert.-butylbenzenesulfonamide] | – | 49 | –
